Assay results: US20240398811A1, “PRC2 INHIBITORS FOR USE IN TREATING BLOOD DISORDERS” (ORIC Pharmaceuticals, Inc., priority 2021, published 2024)

Each compound was assayed against purified human, His-tagged PRC2 complex (Homo sapiens (Human), UniProt O75530) (assay: Hot Spot HMT assay, inhibition of PRC2 enzymatic activity). Conditions: 10 nM PRC2 complex, 1 μM 3H-SAM, core histone H3, 10-point dose-response.
Format: biochemical
Outline: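 Methyl transfer from 1 μM tritiated SAM onto 0.05 mg/ml core histone H3, catalysed by 10 nM His/Flag-tagged human PRC2 holoenzyme, was run 1 hr at 30° C after a 20 min compound preincubation. Serial dilutions began at 1.0 μM; product captured on filters and counted.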

Chain of purified human, His-tagged PRC2 complex (O75530 whole entry): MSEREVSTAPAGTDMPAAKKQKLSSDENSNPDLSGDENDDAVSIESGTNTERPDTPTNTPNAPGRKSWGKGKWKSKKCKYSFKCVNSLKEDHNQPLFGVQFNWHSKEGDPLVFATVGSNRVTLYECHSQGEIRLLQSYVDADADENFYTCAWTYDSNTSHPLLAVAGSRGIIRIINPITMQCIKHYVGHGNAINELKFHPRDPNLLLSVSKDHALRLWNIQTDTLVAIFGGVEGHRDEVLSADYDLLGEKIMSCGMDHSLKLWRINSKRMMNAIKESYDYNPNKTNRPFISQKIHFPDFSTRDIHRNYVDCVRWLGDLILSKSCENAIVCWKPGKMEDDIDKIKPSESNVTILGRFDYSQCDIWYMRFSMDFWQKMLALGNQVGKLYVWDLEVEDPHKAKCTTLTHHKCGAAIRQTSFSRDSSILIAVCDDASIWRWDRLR
Chain of purified human, His-tagged PRC2 complex (Q15910 whole entry partner): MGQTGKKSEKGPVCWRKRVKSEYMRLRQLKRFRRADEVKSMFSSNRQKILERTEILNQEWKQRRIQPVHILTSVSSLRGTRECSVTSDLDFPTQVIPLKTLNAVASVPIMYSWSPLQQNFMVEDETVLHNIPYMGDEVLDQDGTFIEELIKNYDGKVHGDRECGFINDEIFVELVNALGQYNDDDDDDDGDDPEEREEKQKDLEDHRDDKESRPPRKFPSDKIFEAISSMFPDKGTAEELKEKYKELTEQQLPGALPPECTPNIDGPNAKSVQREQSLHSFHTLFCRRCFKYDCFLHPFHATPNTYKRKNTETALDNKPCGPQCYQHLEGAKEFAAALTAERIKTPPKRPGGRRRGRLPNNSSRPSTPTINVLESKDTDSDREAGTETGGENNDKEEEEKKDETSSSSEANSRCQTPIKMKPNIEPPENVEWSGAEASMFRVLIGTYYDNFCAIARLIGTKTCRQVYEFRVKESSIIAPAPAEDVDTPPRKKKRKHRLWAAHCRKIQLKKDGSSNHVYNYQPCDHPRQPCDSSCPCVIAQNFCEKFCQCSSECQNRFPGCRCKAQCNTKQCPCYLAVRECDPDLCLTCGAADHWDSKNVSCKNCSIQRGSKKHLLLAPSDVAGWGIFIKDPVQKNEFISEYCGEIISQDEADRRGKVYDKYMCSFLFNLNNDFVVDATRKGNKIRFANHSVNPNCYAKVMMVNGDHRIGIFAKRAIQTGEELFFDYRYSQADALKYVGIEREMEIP
Chain of purified human, His-tagged PRC2 complex (Q15022 whole entry partner): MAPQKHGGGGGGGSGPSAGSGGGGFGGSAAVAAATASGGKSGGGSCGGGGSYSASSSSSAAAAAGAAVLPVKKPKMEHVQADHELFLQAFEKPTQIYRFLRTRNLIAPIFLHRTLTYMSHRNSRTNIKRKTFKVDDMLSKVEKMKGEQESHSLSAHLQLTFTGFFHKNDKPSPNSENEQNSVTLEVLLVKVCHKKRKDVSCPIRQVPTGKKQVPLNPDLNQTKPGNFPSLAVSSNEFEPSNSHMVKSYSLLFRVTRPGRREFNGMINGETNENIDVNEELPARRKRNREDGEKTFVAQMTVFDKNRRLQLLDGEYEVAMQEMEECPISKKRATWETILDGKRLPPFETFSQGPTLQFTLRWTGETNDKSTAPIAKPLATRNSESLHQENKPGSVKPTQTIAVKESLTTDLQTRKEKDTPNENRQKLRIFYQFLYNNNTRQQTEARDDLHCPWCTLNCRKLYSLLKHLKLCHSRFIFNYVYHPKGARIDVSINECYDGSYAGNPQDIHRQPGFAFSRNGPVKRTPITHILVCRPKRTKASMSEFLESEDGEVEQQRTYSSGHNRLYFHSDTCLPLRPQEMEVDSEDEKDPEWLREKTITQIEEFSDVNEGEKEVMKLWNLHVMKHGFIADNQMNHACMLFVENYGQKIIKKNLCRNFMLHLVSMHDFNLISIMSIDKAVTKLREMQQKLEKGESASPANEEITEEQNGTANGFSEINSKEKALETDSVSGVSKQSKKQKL
Chain of purified human, His-tagged PRC2 complex (Q6ZN18 whole entry partner): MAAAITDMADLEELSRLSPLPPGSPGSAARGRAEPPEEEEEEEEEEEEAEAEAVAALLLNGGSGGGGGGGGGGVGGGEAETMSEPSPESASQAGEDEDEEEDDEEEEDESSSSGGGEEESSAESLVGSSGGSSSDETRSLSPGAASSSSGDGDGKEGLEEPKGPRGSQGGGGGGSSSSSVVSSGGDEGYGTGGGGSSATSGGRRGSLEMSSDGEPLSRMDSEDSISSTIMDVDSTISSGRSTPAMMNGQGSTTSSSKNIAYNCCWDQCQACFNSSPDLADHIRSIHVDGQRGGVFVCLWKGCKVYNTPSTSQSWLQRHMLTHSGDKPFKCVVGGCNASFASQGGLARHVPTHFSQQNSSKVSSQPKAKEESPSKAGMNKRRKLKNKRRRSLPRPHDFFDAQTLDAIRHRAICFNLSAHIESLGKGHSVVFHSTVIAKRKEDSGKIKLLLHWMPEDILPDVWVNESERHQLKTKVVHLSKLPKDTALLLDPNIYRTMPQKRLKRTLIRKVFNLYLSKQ
Chain of purified human, His-tagged PRC2 complex (Q09028 whole entry partner): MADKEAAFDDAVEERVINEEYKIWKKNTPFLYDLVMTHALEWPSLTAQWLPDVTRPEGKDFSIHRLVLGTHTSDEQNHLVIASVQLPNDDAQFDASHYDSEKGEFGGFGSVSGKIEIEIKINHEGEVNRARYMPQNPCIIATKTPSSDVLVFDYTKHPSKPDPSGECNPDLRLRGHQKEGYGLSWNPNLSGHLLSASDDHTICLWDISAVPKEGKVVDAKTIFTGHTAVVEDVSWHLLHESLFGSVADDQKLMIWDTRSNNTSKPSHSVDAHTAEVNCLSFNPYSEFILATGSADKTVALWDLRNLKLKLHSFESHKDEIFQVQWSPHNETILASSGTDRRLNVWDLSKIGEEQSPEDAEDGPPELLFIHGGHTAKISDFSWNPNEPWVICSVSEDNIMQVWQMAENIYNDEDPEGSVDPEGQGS

IC50 [nM] | SMILES
100 to 500 | Cn1nccc(-c2cnc(NCc3c(F)ccc4c3CCO4)n3cc(C#N)nc23)c1=O [Example 194, 5-(((5-fluoro-2,3-dihydrobenzofuran-4-yl)methyl)amino)-8-(2-methyl-3-oxo-2,3-dihydropyridazin-4-yl)imidazo[1,2-c]pyrimidine-2-carbonitrile]
< 100 | CNCc1ccc(-c2cnc(NCc3c(F)ccc4c3CCO4)n3cc(C#N)nc23)cc1F [Example 197, 5-(((5-fluoro-2,3-dihydrobenzofuran-4-yl)methyl)amino)-8-(3-fluoro-4-((methylamino)methyl)phenyl)imidazo[1,2-c]pyrimidine-2-carbonitrile]
< 100 | CC(c1ccc(-c2cnc(NCc3c(F)ccc4c3CCO4)n3cc(C#N)nc23)cc1)N(C)C (stereo not shown) [Example 199, 8-(4-(1-(dimethylamino)ethyl)phenyl)-5-(((5-fluoro-2,3-dihydrobenzofuran-4-yl)methyl)amino)imidazo[1,2-c]pyrimidine-2-carbonitrile]
100 to 500 | Cc1cc(-c2cnc(NCc3c(F)ccc4c3CCO4)n3cc(C#N)nc23)ccc1CN(C)C [Example 200, 8-(4-((dimethylamino)methyl)-3-methylphenyl)-5-(((5-fluoro-2,3-dihydrobenzofuran-4-yl)methyl)amino)imidazo[1,2-c]pyrimidine-2-carbonitrile]
100 to 500 | N#Cc1cn2c(NCc3c(F)ccc4c3CCO4)ncc(-c3ccc4c(c3)CCNC4)c2n1 [Example 203, 5-(((5-fluoro-2,3-dihydrobenzofuran-4-yl)methyl)amino)-8-(1,2,3,4-tetrahydroisoquinolin-6-yl)imidazo[1,2-c]pyrimidine-2-carbonitrile]
100 to 500 | N#Cc1cn2c(NCc3c(F)ccc4c3CCO4)ncc(-c3ccc4c(c3)CNC4)c2n1 [Example 205, 5-(((5-fluoro-2,3-dihydrobenzofuran-4-yl)methyl)amino)-8-(isoindolin-5-yl)imidazo[1,2-c]pyrimidine-2-carbonitrile]
< 100 | CNC(=O)c1cc(-c2cnc(NCc3c(F)ccc4c3CCO4)n3cc(C#N)nc23)n(C)n1 [Example 208, 5-(2-cyano-5-(((5-fluoro-2,3-dihydrobenzofuran-4-yl)methyl)amino)imidazo[1,2-c]pyrimidin-8-yl)-N,1-dimethyl-1H-pyrazole-3-carboxamide]
< 100 | N#Cc1cn2c(NCc3c(F)ccc4c3CCO4)ncc(-c3ccc(C(=O)O)nc3)c2n1 [Example 215, 5-(2-cyano-5-(((5-fluoro-2,3-dihydrobenzofuran-4-yl)methyl)amino)imidazo[1,2-c]pyrimidin-8-yl)picolinic Acid]
< 100 | CN(C)Cc1ncc(-c2cnc(NCc3c(F)ccc4c3CCO4)n3cc(C#N)nc23)cn1 [Example 216, 8-(2-((dimethylamino)methyl)pyrimidin-5-yl)-5-(((5-fluoro-2,3-dihydrobenzofuran-4-yl)methyl)amino)imidazo[1,2-c]pyrimidine-2-carbonitrile]

The remaining lines, values behind:

SMILES | IC50 [nM]
N#Cc1cn2c(NCc3c(F)ccc4c3CCO4)ncc(-c3ccnn3C3CC3)c2n1 [Example 193, 8-(1-cyclopropyl-1H-pyrazol-5-yl)-5-(((5-fluoro-2,3-dihydrobenzofuran-4-yl)methyl)amino)imidazo[1,2-c]pyrimidine-2-carbonitrile] | < 100
Cc1cc(CN(C)C)ncc1-c1cnc(NCc2c(F)ccc3c2CCO3)n2cc(C#N)nc12 [Example 195, 8-(6-((dimethylamino)methyl)-4-methylpyridin-3-yl)-5-(((5-fluoro-2,3-dihydrobenzofuran-4-yl)methyl)amino)imidazo[1,2-c]pyrimidine-2-carbonitrile] | < 100
CNCc1ccc(-c2cnc(NCc3c(F)ccc4c3CCO4)n3cc(C#N)nc23)c(C)c1 [Example 196, 5-(((5-fluoro-2,3-dihydrobenzofuran-4-yl)methyl)amino)-8-(2-methyl-4-((methylamino)methyl)phenyl)imidazo[1,2-c]pyrimidine-2-carbonitrile] | 100 to 500
CN(C)Cc1ccc(-c2cnc(NCc3c(F)ccc4c3CCO4)n3cc(C#N)nc23)c(C#N)c1 [Example 198, 8-(2-cyano-4-((dimethylamino)methyl)phenyl)-5-(((5-fluoro-2,3-dihydrobenzofuran-4-yl)methyl)amino)imidazo[1,2-c]pyrimidine-2-carbonitrile] | < 100
CN(C)Cc1ccc(-c2cnc(NCc3c(F)ccc4c3CCO4)n3cc(C#N)nc23)cc1C#N [Example 201, 8-(3-cyano-4-((dimethylamino)methyl)phenyl)-5-(((5-fluoro-2,3-dihydrobenzofuran-4-yl)methyl)amino)imidazo[1,2-c]pyrimidine-2-carbonitrile] | < 100
[2H]C([2H])([2H])N(Cc1ccc(-c2cnc(NCc3c(F)ccc4c3CCO4)n3cc(C#N)nc23)c(C)c1)C([2H])([2H])[2H] [Example 202, 8-(4-((bis(methyl-d3)amino)methyl)-2-methylphenyl)-5-(((5-fluoro-2,3-dihydrobenzofuran-4-yl)methyl)amino)imidazo[1,2-c]pyrimidine-2-carbonitrile] | < 100
N#Cc1cn2c(NCc3c(F)ccc4c3CCO4)ncc(-c3ccc(C4CCCN4)cc3)c2n1 (stereo not shown) [Example 204, 5-(((5-fluoro-2,3-dihydrobenzofuran-4-yl)methyl)amino)-8-(4-(pyrrolidin-2-yl)phenyl)imidazo[1,2-c]pyrimidine-2-carbonitrile] | 100 to 500
COCCOc1ccc(-c2cnc(NCc3c(F)ccc4c3CCO4)n3cc(C#N)nc23)c(C)c1 [Example 206, 5-(((5-fluoro-2,3-dihydrobenzofuran-4-yl)methyl)amino)-8-(4-(2-methoxyethoxy)-2-methylphenyl)imidazo[1,2-c]pyrimidine-2-carbonitrile] | 100 to 500
Cc1cc(CN(C)C)ccc1-c1cnc(NCc2c(F)ccc3c2C(O)CO3)n2cc(C#N)nc12 (stereo not shown) [Example 207, 8-(4-((dimethylamino)methyl)-2-methylphenyl)-5-(((5-fluoro-3-hydroxy-2,3-dihydrobenzofuran-4-yl)methyl)amino)imidazo[1,2-c]pyrimidine-2-carbonitrile] | < 100
CN(C)Cc1cc(-c2cnc(NCc3c(F)ccc4c3CCO4)n3cc(C#N)nc23)n(C)n1 [Example 210, 8-(3-((dimethylamino)methyl)-1-methyl-1H-pyrazol-5-yl)-5-(((5-fluoro-2,3-dihydrobenzofuran-4-yl)methyl)amino)imidazo[1,2-c]pyrimidine-2-carbonitrile] | < 100
CNCc1cc(-c2cnc(NCc3c(F)ccc4c3CCO4)n3cc(C#N)nc23)n(C)n1 [Example 211, 5-(((5-fluoro-2,3-dihydrobenzofuran-4-yl)methyl)amino)-8-(1-methyl-3-((methylamino)methyl)-1H-pyrazol-5-yl)imidazo[1,2-c]pyrimidine-2-carbonitrile] | < 100
Cn1nc(C#N)cc1-c1cnc(NCc2c(F)ccc3c2CCO3)n2cc(C#N)nc12 [Example 212, 8-(3-cyano-1-methyl-1H-pyrazol-5-yl)-5-(((5-fluoro-2,3-dihydrobenzofuran-4-yl)methyl)amino)imidazo[1,2-c]pyrimidine-2-carbonitrile] | < 100
CN(C)CCc1cccc(-c2cnc(NCc3c(F)ccc4c3CCO4)n3cc(C#N)nc23)c1 [Example 217, 8-(3-(2-(dimethylamino)ethyl)phenyl)-5-(((5-fluoro-2,3-dihydrobenzofuran-4-yl)methyl)amino)imidazo[1,2-c]pyrimidine-2-carbonitrile] | < 100
